Data published in paper PMC4549712, “Inhibition of human GLUT1 and GLUT5 by plant carbohydrate products; insights into transport specificity” (Scientific Reports, 2015).
Residue numbers refer to the chain shown, from its start. Values joined by “and” are separate entries in the source; they are usually repeats but may differ in a detail not shown here. Identical values can stand only once. “Also recorded” adds a separate entry of the source.

What was measured:
human GLUT1 = target: T1, human GLUT1 (Homo sapiens, UniProt P11166); assay: entrance counter-flow transport assay, GLUT1-mediated glucose transport in proteoliposomes; type: biochemical
T1 construct: Full length DNA was subcloned into pFastBac1 (Life Technologies) vector with a N-terminal hexahistidine tag; hexahistidine (thrombin-cleavable) (N, cleaved yes); made in house; host or cells: Sf21 insect cells (baculovirus, pFastBac1)
T1 sequence (P11166 1-492): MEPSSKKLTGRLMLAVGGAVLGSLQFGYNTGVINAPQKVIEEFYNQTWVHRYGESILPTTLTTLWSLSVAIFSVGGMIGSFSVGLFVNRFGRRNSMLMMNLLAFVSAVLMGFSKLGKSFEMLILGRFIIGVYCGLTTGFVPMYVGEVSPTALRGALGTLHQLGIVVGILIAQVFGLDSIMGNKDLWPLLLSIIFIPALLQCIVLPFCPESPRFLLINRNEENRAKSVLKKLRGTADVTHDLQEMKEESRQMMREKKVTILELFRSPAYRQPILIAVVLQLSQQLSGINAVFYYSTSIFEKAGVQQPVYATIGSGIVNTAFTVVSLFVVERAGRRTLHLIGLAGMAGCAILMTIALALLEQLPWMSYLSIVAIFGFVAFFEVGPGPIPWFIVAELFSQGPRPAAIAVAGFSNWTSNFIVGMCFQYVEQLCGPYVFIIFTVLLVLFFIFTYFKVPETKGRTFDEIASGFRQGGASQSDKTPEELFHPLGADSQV
Experimental: Human GLUT1 and GLUT5 were expressed recombinantly in insect cell culture. The purified proteins were reconstituted into proteoliposomes. To measure the inhibition of GLUT1 or GLUT5 transport activity we used entrance counter-flow transport assay. In GLUT1 and GLUT5 proteoliposomes, substrate transport reached steady state after one minute incubation at room temperature.
Proteoliposomes were generated according to the protocol from[30] with minor modifications. Liposomes were produced from a 95/5% (w/w) mix of soy phosphatidylcholine and cholesterol (Avanti Polar Lipids). Briefly, hexane-washed and vacuum-dried lipids were resuspended to 20 mg/ml in 100 mM KPi (pH 7.5), and then subjected to 11 freeze-and-thaw cycles in liquid nitrogen and room temperature water. The lipid mixture was extruded through a 0.1 μm polycarbonate filter. Prepared liposomes were destabilized with 4 mM Triton X-100 and mixed with purified protein in a 100:1 (w/w) ratio in 100 mM KPi (pH 7.5) 20% (v/v) glycerol, 200 mM (glucose or fructose). Detergent was removed by several additions of SM2 BioBeads (BioRad) and incubated overnight at 4 °C. After filtering out the BioBeads, proteoliposomes were diluted with 100 mM KPi (pH 7.5) 200 mM (glucose or fructose), and then collected by ultracentrifugation, at 200,000 × g and 4 °C, for 1 hour. The proteoliposomes pellet was resuspended in the above buffer so that O.D.600nm was ~30.
To measure hexose transport, we utilized entrance counter-flow assay. Transport was performed in a volume of 100 μL of 100 mM KPi (pH 7.5) buffer containing radioactive ^14C-hexose (4 μM fructose or 5 μM glucose) with inhibitors added before initiation of transport. Radioactive substrate uptake in GLUT1 and GLUT5 (wild-type or mutant) proteoliposomes was constant between 1 and 2 mins. The reaction was started by the addition of 3 μL concentrated proteoliposomes to the above solution and incubated at room temperature; the transport was stopped after one minute by addition of ice-chilled quench buffer [100 mM KPi (pH 5.5) and 100 mM LiCl]. The solution was filtered through a 0.4 μm pore size cellulose nitrate membrane filter (Whatman), and the filter was washed three times with quench buffer. The membrane filter was placed into a vial filled with BioSafe II scintillation liquid (Research Products International Corp.), and radioactivity was quantified with LS 6500 scintillation counter (Beckman). […] The transport assays were unaffected by 5% DMSO. Data is presented as relative activity normalized to radioactivity of no inhibitor added as 100% and empty proteoliposomes as 0%. Kinetic parameters were fitted by nonlinear algorithm plots using Prism (GraphPad Software).

GLUT1W388A = target: T2, GLUT1W388A (Homo sapiens, UniProt P11166, W388A); assay: entrance counter-flow transport assay, glucose transport by GLUT1W388A proteoliposomes; type: biochemical; conditions: any tested concentration, up to 20 mM
T2 construct: Full length DNA was subcloned into pFastBac1 (Life Technologies) vector with a N-terminal hexahistidine tag; hexahistidine (thrombin-cleavable) (N, cleaved yes); made in house; host or cells: Sf21 insect cells (baculovirus, pFastBac1)
T2 sequence (P11166 1-492 W388A): T1 sequence (P11166 1-492) with W388A
Experimental: We expressed and purified GLUT1W388A and GLUT5A396W. Purified mutant proteins were reconstituted into proteoliposomes and activity was determined by entrance counter-flow transport assay.
cDNAs of GLUT1 and GLUT5 were purchased from Open Biosystems (GE Healthcare). Full length DNA was subcloned into pFastBac1 (Life Technologies) vector with a N-terminal hexahistidine tag. Bacmids were generated in DH10Bac E. coli cells (Life Technologies). Baculoviruses were produced using Cellfectin II Reagent and amplified in Sf21 insect cells (Life Technologies). Cells were maintained at 26 °C, and P1 (10^6 pfu/mL) was collected from infected cells after 72 hours. Sf21 cells were propagated in HyClone SFX-Insect media (GE Healthcare), supplemented with 5% fetal bovine serum (Biowest), antibiotics (100 units/mL Penicillin G and 100 μg/mL streptomycin sulfate) and amphotericin B (2.5 μg/mL). For recombinant protein expression, Sf21 cells in suspension culture at 2 × 10^6 cells/ml were infected with P3 viral stock (10^8 pfu/mL), at an MOI of 1.0 pfu/cell. Four days after viral infection, cells from 2 L culture were collected by centrifugation at 2,000 × g and 25 °C. […]

C=C1C[C@@]23CC[C@H]4[C@@](C)(CCC[C@@]4(C)C(=O)O[C@@H]4O[C@H](CO)[C@@H](O)[C@H](O)[C@H]4O)[C@@H]2CC[C@]1(O[C@@H]1O[C@H](CO)[C@@H](O)[C@H](O)[C@H]1O)C3 [Rub, Rubusoside]
inhibition of GLUT1 glucose transport activity (human GLUT1; 20 mM): reducing activity to background levels | IC50 (human GLUT1; entrance counter-flow): 4.6 mM and ~5 mM | inhibition of glucose transport by GLUT1W388A (GLUT1W388A): not inhibited; also recorded: did not inhibit
